Patent US8129409B2, “Piperidine derivatives and cosmetic compositions thereof” (L'Oreal, priority 2004, dated 2012)

Assays:
[1] = tested on: human striated muscle cells innervated with explants of rat embryonic rachidian ganglia and spinal cord; assay: nerve/muscle coculture model, muscle fibre contractions; type: cell-based
Procedure: The compound of Example 1 was tested on a model of nerve/muscle coculture, which makes it possible to recreate a motor arc by innervating human striated muscle cells with explants of rat embryonic rachidian ganglia and spinal cord.
Human muscle cells, obtained from samples of striated muscle from healthy donors, are inoculated into wells of cross section 1.8 cm^2 (24-well culture dishes). After culturing for ten days, these cells form a monolayer and fuse. At this stage, explants of embryonic spinal cord from a 13 day-old rat, containing the rachidian ganglia, are placed on the culture.
The growth of the neurites is visible beyond the spinal cord explant after one day of culture. The first contractions of the muscle fibres are observed after five to six days of coculture, and after three weeks all the muscle fibres in the region of the explants contract.
The cocultures are used after 21 days, when the muscle fibres are striated and contain mature differentiated neuromuscular junctions.
A muscle fibre showing regular contractions (at least 60 contractions per minute) is then selected from three different culture wells and the number of contractions is counted over 30 seconds. The test compound, diluted in DMSO, is then incubated for 60 seconds in these wells, at a concentration of 10^−5 M. At the end of incubation, the number of contractions is again counted over 30 seconds. […]

[2] = anti-wrinkle activity in vivo; settings: no details given

Compound	contractions of the fibre as % of its contractions before addition of the compound ([1]; 10^−5 M, diluted in DMSO, 60 seconds incubation (one minute after adding), contractions counted over 30 seconds, triplicate) [%]	anti-wrinkle activity in vivo [2]	effect on muscle fibre contractions in the nerve/muscle coculture model ([1]; as demonstrated by the Applicant, no concentration given)
c1ccc(CCCC2CCN(CCCc3ccccc3)CC2)cc1 [Example 1, 1,4-bis(3-phenylpropyl)piperidine]	55	–	–
CN1C(=O)CN=C(c2ccccc2)c2cc(Cl)ccc21 [diazepam]	–	demonstrated in vivo	inhibited muscle fibre contractions
